Strand notation (5' to 3'): a small letter for the sugar, then the base; units joined by * are phosphorothioate-linked, units joined directly phosphodiester-linked; [ ] holds rarer units or linkages, { } end groups; capitals alone tell only the bases. e = 2'-O-(2-methoxyethyl) (MOE); [5mC] = 5-methylcytosine; d = 2'-deoxy (DNA)
Tested on: human Factor 7 mRNA
Experiment: Dose-dependent antisense inhibition of human Factor 7 in HepB3 cells, electroporation
Assay type: cell-based
Details: 3.125 μM, approx. 16 hours (Table 15, Example 7)
Method: (§1) The gapmers were also transfected via electroporation and their dose-dependent inhibition of human Factor 7 mRNA was measured. Cells were plated at a density of 20,000 cells per well and transfected via electroporation with 3.125 μM, 6.25 μM, 12.5 μM, 25 μM, 50 μM, and 100 μM concentrations of antisense oligonucleotide, as specified in Table 15. After a treatment period of approximately 16 hours, RNA was isolated from the cells and Factor 7 mRNA levels were measured by quantitative real-time PCR. Human Factor 7 primer probe set RTS 2927 was used to measure mRNA levels. Factor 7 mRNA levels were adjusted according to total RNA content, as measured by RIBOGREEN®. Results are presented as percent inhibition of Factor 7, relative to untreated control cells.
as §1, with “Cells were” for “The gapmers were also transfected via electroporation and their dose-dependent inhibition of human Factor 7 mRNA was measured. Cells were”, “in […]. After a” for “in Table 15. After a”, “cells and human Factor 7” for “cells and Factor 7”

Row | Substance | percent inhibition of Factor 7 mRNA, relative to untreated control cells [%]
1 | 422217 (antisense eG*eA*eG*dT*dT*d[5mC]*dT*dG*d[5mC]*dA*dG*dG*dA*dG*d[5mC]*dG*dG*e[5mC]*e[5mC]*eT) [compound 422217] | 15
2 | 422228 (antisense eT*eG*d[5mC]*dA*dT*dG*dG*dT*dG*dA*dT*dG*d[5mC]*dT*dT*e[5mC]*eT*eG*eA*eA) [compound 422228] | 18

Same assay, conditions: 6.25 μM, approx. 16 hours (Table 15, Example 7)

Row | Substance | percent inhibition of Factor 7 mRNA, relative to untreated control cells [%]
3 | 422217 (antisense eG*eA*eG*dT*dT*d[5mC]*dT*dG*d[5mC]*dA*dG*dG*dA*dG*d[5mC]*dG*dG*e[5mC]*e[5mC]*eT) [compound 422217] | 19
4 | 422228 (antisense eT*eG*d[5mC]*dA*dT*dG*dG*dT*dG*dA*dT*dG*d[5mC]*dT*dT*e[5mC]*eT*eG*eA*eA) [compound 422228] | 33

Same assay, conditions: 12.5 μM, approx. 16 hours (Table 15, Example 7)

Row | Substance | percent inhibition of Factor 7 mRNA, relative to untreated control cells [%]
5 | 422217 (antisense eG*eA*eG*dT*dT*d[5mC]*dT*dG*d[5mC]*dA*dG*dG*dA*dG*d[5mC]*dG*dG*e[5mC]*e[5mC]*eT) [compound 422217] | 29
6 | 422228 (antisense eT*eG*d[5mC]*dA*dT*dG*dG*dT*dG*dA*dT*dG*d[5mC]*dT*dT*e[5mC]*eT*eG*eA*eA) [compound 422228] | 40

Same assay, conditions: 25 μM, approx. 16 hours (Table 15, Example 7)

Row | Substance | percent inhibition of Factor 7 mRNA, relative to untreated control cells [%]
7 | 422217 (antisense eG*eA*eG*dT*dT*d[5mC]*dT*dG*d[5mC]*dA*dG*dG*dA*dG*d[5mC]*dG*dG*e[5mC]*e[5mC]*eT) [compound 422217] | 55
8 | 422228 (antisense eT*eG*d[5mC]*dA*dT*dG*dG*dT*dG*dA*dT*dG*d[5mC]*dT*dT*e[5mC]*eT*eG*eA*eA) [compound 422228] | 47

Same assay, conditions: 50 μM, approx. 16 hours (Table 15, Example 7)

Row | Substance | percent inhibition of Factor 7 mRNA, relative to untreated control cells [%]
9 | 422217 (antisense eG*eA*eG*dT*dT*d[5mC]*dT*dG*d[5mC]*dA*dG*dG*dA*dG*d[5mC]*dG*dG*e[5mC]*e[5mC]*eT) [compound 422217] | 61
10 | 422228 (antisense eT*eG*d[5mC]*dA*dT*dG*dG*dT*dG*dA*dT*dG*d[5mC]*dT*dT*e[5mC]*eT*eG*eA*eA) [compound 422228] | 71

Same assay, conditions: 100 μM, approx. 16 hours (Table 15, Example 7)

Row | Substance | percent inhibition of Factor 7 mRNA, relative to untreated control cells [%]
11 | 422217 (antisense eG*eA*eG*dT*dT*d[5mC]*dT*dG*d[5mC]*dA*dG*dG*dA*dG*d[5mC]*dG*dG*e[5mC]*e[5mC]*eT) [compound 422217] | 83
12 | 422228 (antisense eT*eG*d[5mC]*dA*dT*dG*dG*dT*dG*dA*dT*dG*d[5mC]*dT*dT*e[5mC]*eT*eG*eA*eA) [compound 422228] | 83

Tested on: human Factor 7 mRNA
Experiment: Dose-dependent antisense inhibition of human Factor 7 in HepB3 cells, lipofectin
Assay type: cell-based
Details: 3.125 nM, HepB3 cells, approx. 16 hours (Table 14)
In short: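 HepB3 cells (4,000/well) lipofectin-transfected with antisense oligonucleotide at 3.125 or 6.25 up to 100 nM for ~16 h. Factor 7 mRNA measured by real-time RT-PCR with primer probe set RTS 2927, adjusted to RIBOGREEN total RNA; expressed as percent inhibition versus untreated control cells.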

Row | Substance | percent inhibition of Factor 7 mRNA, relative to untreated control cells [%]
13 | 422217 (antisense eG*eA*eG*dT*dT*d[5mC]*dT*dG*d[5mC]*dA*dG*dG*dA*dG*d[5mC]*dG*dG*e[5mC]*e[5mC]*eT) [compound 422217] | 8
14 | 422228 (antisense eT*eG*d[5mC]*dA*dT*dG*dG*dT*dG*dA*dT*dG*d[5mC]*dT*dT*e[5mC]*eT*eG*eA*eA) [compound 422228] | 17

Same assay, conditions: 12.5 nM, HepB3 cells, approx. 16 hours (Table 14)

Row | Substance | percent inhibition of Factor 7 mRNA, relative to untreated control cells [%]
15 | 422217 (antisense eG*eA*eG*dT*dT*d[5mC]*dT*dG*d[5mC]*dA*dG*dG*dA*dG*d[5mC]*dG*dG*e[5mC]*e[5mC]*eT) [compound 422217] | 45
16 | 422228 (antisense eT*eG*d[5mC]*dA*dT*dG*dG*dT*dG*dA*dT*dG*d[5mC]*dT*dT*e[5mC]*eT*eG*eA*eA) [compound 422228] | 43

Same assay, conditions: 25 nM, HepB3 cells, approx. 16 hours (Table 14)

Row | Substance | percent inhibition of Factor 7 mRNA, relative to untreated control cells [%]
17 | 422217 (antisense eG*eA*eG*dT*dT*d[5mC]*dT*dG*d[5mC]*dA*dG*dG*dA*dG*d[5mC]*dG*dG*e[5mC]*e[5mC]*eT) [compound 422217] | 63
18 | 422228 (antisense eT*eG*d[5mC]*dA*dT*dG*dG*dT*dG*dA*dT*dG*d[5mC]*dT*dT*e[5mC]*eT*eG*eA*eA) [compound 422228] | 60

Same assay, conditions: 50 nM, HepB3 cells, approx. 16 hours (Table 14)

Row | Substance | percent inhibition of Factor 7 mRNA, relative to untreated control cells [%]
19 | 422217 (antisense eG*eA*eG*dT*dT*d[5mC]*dT*dG*d[5mC]*dA*dG*dG*dA*dG*d[5mC]*dG*dG*e[5mC]*e[5mC]*eT) [compound 422217] | 79
20 | 422228 (antisense eT*eG*d[5mC]*dA*dT*dG*dG*dT*dG*dA*dT*dG*d[5mC]*dT*dT*e[5mC]*eT*eG*eA*eA) [compound 422228] | 78

Same assay, conditions: 100 nM, HepB3 cells, approx. 16 hours (Table 14)

Row | Substance | percent inhibition of Factor 7 mRNA, relative to untreated control cells [%]
21 | 422217 (antisense eG*eA*eG*dT*dT*d[5mC]*dT*dG*d[5mC]*dA*dG*dG*dA*dG*d[5mC]*dG*dG*e[5mC]*e[5mC]*eT) [compound 422217] | 83
22 | 422228 (antisense eT*eG*d[5mC]*dA*dT*dG*dG*dT*dG*dA*dT*dG*d[5mC]*dT*dT*e[5mC]*eT*eG*eA*eA) [compound 422228] | 90

Same assay, conditions: HepB3 cells, approx. 16 hours (Table 14)

Row | Substance | percent inhibition of Factor 7 mRNA, relative to untreated control cells [%]
23 | 422217 (antisense eG*eA*eG*dT*dT*d[5mC]*dT*dG*d[5mC]*dA*dG*dG*dA*dG*d[5mC]*dG*dG*e[5mC]*e[5mC]*eT) [compound 422217] | 18
24 | 422228 (antisense eT*eG*d[5mC]*dA*dT*dG*dG*dT*dG*dA*dT*dG*d[5mC]*dT*dT*e[5mC]*eT*eG*eA*eA) [compound 422228] | 25

Tested on: human Factor 7 mRNA
Experiment: Antisense inhibition of human Factor 7 mRNA in HepB3 cells, 50 nM antisense oligonucleotide, lipofectin
Assay type: cell-based
Details: Table 13 (microwalk), 50 nM, lipofectin, approximately 24 hours
In short: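 Seeding density was 4,000 cells per well. Following roughly 24 hours of oligonucleotide treatment, RNA was extracted and Factor 7 message quantified using the RTS 2927 primer probe set. Levels were corrected for RIBOGREEN® total RNA and expressed against untreated controls.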

Row | Substance | % Inhibition [%]
25 | 422228 (antisense eT*eG*d[5mC]*dA*dT*dG*dG*dT*dG*dA*dT*dG*d[5mC]*dT*dT*e[5mC]*eT*eG*eA*eA) [compound 422228] | 73

Same assay, conditions: gapmers targeted to nucleobases 4868 to 4899 of SEQ ID NO: 1, Table 8

Row | Substance | % Inhibition of human Factor 7 mRNA levels [%]
26 | 422217 (antisense eG*eA*eG*dT*dT*d[5mC]*dT*dG*d[5mC]*dA*dG*dG*dA*dG*d[5mC]*dG*dG*e[5mC]*e[5mC]*eT) [compound 422217] | 75

— patent US9029337B2, “Modulation of factor 7 expression” (Isis Pharmaceuticals, Inc., priority 2007, dated 2015)
